Source: patent US20220160849A1, “CANCER VACCINE FORMULATION” (MIE UNIVERSITY, priority 2019, published 2022)

System: mouse melanoma B16F10 cell line expressing TRP2, TRP1, and gp100
Assay: Mouse tumor growth test, mouse melanoma B16F10
Assay type: in vivo, C57BL/6 mouse
Experimental: A mouse fibrosarcoma CMS5a cell line expressing mERK2, a mouse colorectal cancer cell CT26 cell line expressing AH1 and gp70, or a mouse melanoma B16F10 cell line expressing TRP2, TRP1, and gp100 was subcutaneously transplanted. The CMS5a cell line and the CT26 cell line were each subcutaneously transplanted in an amount of 1×10^6 cultured cells/100 μL/individual to each BALB/c mouse (female: body weight: 15 to 25 g). The B16F10 cell line was subcutaneously transplanted in an amount of […] cultured cells/100 μL/individual to each C57BL/6 mouse (female; body weight: 15 to 25 g). Then, tumor volumes were measured over time.
Each sample of Table 17 was subcutaneously administered with the frequency described in Table 17 to the mouse melanoma B16F10-bearing mice prepared by the method described in Example 5 to conduct a mouse tumor growth test.
Each sample of Table 20 was subcutaneously administered with the frequency described in Table 20 to the mouse melanoma B16F10-bearing mice prepared by the method described in Example 5 to conduct a mouse tumor growth test.
Each sample of Table 21 was subcutaneously administered with the frequency described in Table 21 to the mouse melanoma B16F10-bearing mice prepared by the method described in Example 5 to conduct a mouse tumor growth test.
Each sample of Table 22 was subcutaneously administered with the frequency described in Table 22 to the mouse melanoma B16F10-bearing mice prepared by the method described in Example 5 to conduct a mouse tumor growth test.
Each sample of Table 23 was subcutaneously administered with the frequency described in Table 23 to the mouse melanoma B16F10-bearing mice prepared by the method described in Example 5 to conduct a mouse tumor growth test.

[1] = Example 7-4, FIG. 23, adjuvant (Sting 0.015 mg, R848 0.05 mg) with 99k HA-C6-Chol-42% / TRP2TRP1gp100-6Y 0.05 mg s.c. day 10, 14, 17, 20

`CCOCc1nc2c(N)nc3ccccc3c2n1CC(C)(C)O` [R848] was tested, and the “tumor growth suppressive effect (tumor volume)” value (shortened to “tumor growth suppressive effect”) [1] was “high tumor growth suppressive effect”.

For `Nc1nc2c(ncn2C2OC3COP(=O)(S)OC4C(COP(=O)(S)OC2C3O)OC(n2cnc3c(N)ncnc32)C4O)c(=O)[nH]1` (stereo not drawn) [Sting, 2′3′-cGAM(PS)2(Rp/Sp)], the “tumor growth suppressive effect” value [1] was “high tumor growth suppressive effect”.

polyIC was tested, and the “tumor growth suppressive effect” value (Example 7-3, FIG. 22, adjuvant 0.05 mg with 99k HA-C6-Chol-42% / TRP2TRP1gp100-6Y 0.05 mg s.c. day 10, 14, 17, 21) was “high tumor growth suppressive effect”.
